{
  "source": "patent US12343337B2",
  "about": "“Compounds for increasing neural plasticity” (THE REGENTS OF THE UNIVERSITY OF CALIFORNIA, priority 2016, dated 2025)",
  "key": {"[1]": {"tested_on": "cultured embryonic rat cortical neurons", "test": "Neuritogenesis experiments (Sholl analysis) in cortical cultures", "assay_type": "cell-based", "details": "for promoting neuritogenesis: cultured embryonic rat cortical neurons, DIV6, 10 μM (0.1% DMSO) unless noted otherwise, 72 h treatment, FIGS. 1B-1D, 2B-2D", "experimental": "(§1) Primary cortical cultures were prepared using tissue from embryonic day 18 (E18) Sprague Dawley rats. Cells were plated at various densities on poly-D-lysine coated plates depending on the specific experiment (vide infra). Plating media consisted of 10% heat-inactivated FBS (Life Technologies), 1% penicillin-streptomycin (Life Technologies), and 0.5 mM glutamine (Life Technologies) in Neurobasal (Life Technologies). After 15-24 h, the media was removed and exchanged for replacement media containing 1×B27 supplement (Life Technologies), 1% penicillin-streptomycin, 0.5 mM glutamine, 12.5 μM glutamate, and Neurobasal. After 96 h, 50% of the media was removed and replaced with feed media containing 1×B27 supplement, 1% penicillin-streptomycin, and 0.5 mM glutamine. Once per week until the cultures had reached sufficient maturity for experiments, 50% of the culture media was removed and replaced with feed media, with an additional 20% by volume being added to account for evaporation. For experiments using antagonists/inhibitors, cells were pretreated with ANA-12 (10 μM), rapamycin (100 nM), and ketanserin (100 μM) for 10 min prior to the addition of test compounds. The final DMSO concentration of these experiments was 0.2%. The neurons used in each cellular experiment were taken from at least two different treatment wells and the wells were randomized to account for plate effects. All of the cellular experiments were replicated on at least two occasions by two or more experimenters.\nAll compounds were dissolved in DMSO and diluted 1:1000 with the exception that BDNF was dissolved in water. Cells were treated with the compound at a final concentration of 90 μM (0.1% DMSO) while all other compounds were treated at 10 μM (0.1% DMSO) unless noted otherwise. For in vivo studies, the compound was dissolved in sterile 0.9% saline and administered intraperitoneally at a dose of 10 mg/kg and an injection volume of 10 mL/kg.\nAfter 3 days in vitro (DIV 3), approximately 50,000 cells/well in poly-D-lysine coated 24 well plates were treated. Treatment was accomplished by first diluting DMSO stock solutions of compounds 1:10 in Neurobasal followed by a 1:100 dilution into each well (total dilution=1:1000). After 72 h, cells were fixed by removing 80% of the media and replacing it with a volume of 4% aqueous paraformaldehyde (Alfa Aesar) equal to 50% of the working volume of the well. Then, the cells were allowed to sit for 20 min at room temperature before the fixative was aspirated and each well washed twice with DPBS. Cells were permeabilized using 0.2% Triton X-100 (ThermoFisher) in DPBS for 20 minutes at room temperature without shaking. Plates were blocked with antibody diluting buffer (ADB) containing 2% bovine serum albumin (BSA) in DPBS for 1 h at room temperature. Then, plates were incubated overnight at 4° C. with gentle shaking in ADB and a chicken anti-MAP2 antibody (1:10,000; EnCor, CPCA-MAP2). The next day, plates were washed three times with DPBS and once with 2% ADB in DPBS. Plates were incubated for 1 h at room temperature in ADB containing an anti-chicken IgG secondary antibody conjugated to Alexa Fluor 488 (Life Technologies, 1:500) and washed five times with DPBS. After the final wash, 500 μL of DPBS was added per well and imaged on a Leica inverted epifluorescence microscope at 40× magnification. Images were analyzed using the Simple Neurite Tracer and Sholl analysis plug-ins for ImageJ Fiji (version 1.51N). All images were taken and analyzed by an experimenter blinded to treatment conditions."}, "[2]": {"tested_on": "BDNF", "test": "BDNF ELISA assay in cortical neurons", "assay_type": "cell-based, rat", "experimental": "as §1\nCortical cultures were grown in 6-well plates (600,000 cells per well). At DIV 17-18, all media was removed and replaced with fresh Neurobasal. After 4 h, each well was treated with compound dissolved in DMSO (1:1000) for 24 h. After the treatment period, the media was removed and the cells washed once with ice-cold DPBS. To each well was added 200 μL of Cell Extraction Buffer (Life Technologies) supplemented with cOmplete and PhoSTOP inhibitors, and incubated on ice for 5-10 min. Plates were scrapped and the contents collected. […]"}, "[3]": {"tested_on": "cultured embryonic rat cortical neurons", "test": "Spinogenesis experiments (spine density) in cortical cultures", "assay_type": "cell-based", "details": "cortical cultures treated for 24 h at DIV 18; FIG. 1E and FIG. 2E", "experimental": "as §1, with “The final DMSO concentration of these experiments was 0.2%. The neurons used in each cellular experiment were taken from at least two different treatment wells and the wells were randomized to account for plate effects. All of the cellular experiments were replicated on at least two occasions by two or more experimenters.” left out\nCells were plated at a density of 35,000 cells/well on glass coverslips in 24 well plates. […] Dendritic spines were counted manually by a trained experimenter who was blinded to the treatment conditions."}},
  "data": [
    {"molecule": "CN(C)CCc1c[nH]c2cc(F)ccc12", "note": "[6-fluoro-DMT, 6-fluoro-N,N-dimethyltryptamine]", "values": [
      {"measurement": "promoting neuritogenesis", "setting": "[1]", "value": "capable of robustly promoting neuritogenesis"}
    ]},
    {"molecule": "COc1ccc2c(CCN(C)C)c[nH]c2c1", "note": "[6-methoxy-DMT, 6-methoxy-N,N-dimethyltryptamine]", "values": [
      {"measurement": "promoting neuritogenesis", "setting": "[1]", "value": "capable of robustly promoting neuritogenesis"}
    ]},
    {"molecule": "CCN(CC)C(=O)N[C@H]1C=C2c3cccc4[nH]cc(c34)C[C@H]2N(C)C1", "note": "[lisuride, Lisuride]", "values": [
      {"measurement": "BDNF protein levels in the presence of TrkB antagonist ANA-12", "setting": "[2]; cortical cultures, 24 h treatment, with ANA-12, FIG. 6", "value": "negates the increase in BDNF protein levels"},
      {"measurement": "protein levels of BDNF protein", "setting": "[2]; cortical neurons, after 24 hours treatment, ELISA, FIG. 5", "value": "increased the protein levels of BDNF protein"},
      {"measurement": "translation of BDNF on co-treatment with sigma antagonist BD1063", "setting": "[2]; cultured cortical neurons co-treated with BD1063, 24 hour treatment, FIG. 7", "value": "completely blocked the increased translation of BDNF"},
      {"measurement": "dose-response of effects on neurite outgrowth", "setting": "[1]; cortical cultures, dose response was not clearly observed, FIGS. 3A and 3B", "value": "exhibiting activity across 8-orders of magnitude into the femtomolar range"},
      {"measurement": "promoting neuritogenesis", "setting": "[1]", "value": "capable of robustly promoting neuritogenesis"},
      {"measurement": "spinogenesis in cortical cultures", "setting": "[3]", "value": "increased spinogenesis"}
    ]},
    {"molecule": "CN(C)CCc1c[nH]c2ccc(Cn3cncn3)cc12", "note": "[rizatriptan, Rizatriptan]", "values": [
      {"measurement": "promoting neuritogenesis", "setting": "[1]", "value": "capable of robustly promoting neuritogenesis"},
      {"measurement": "spinogenesis in cortical cultures", "setting": "[3]", "value": "increased spinogenesis"}
    ]},
    {"molecule": "BDNF: brain-derived neurotrophic factor, recombinant neurotrophin, Sigma-Aldrich (protein, UniProt P23560 19-247, looked up) Neurotrophic factor BDNF …: APMKEANIRGQGGLAYPGVRTHGTLESVNGPKAGSRGLTSLADTFEHVIEELLDEDQKVRPNEENNKDADLYTSRVMLSSQVPLEPPLLFLLEEYKNYLDAANMSMRVRRHSDPARRGELSVCDSISEWVTAADKKTAVDMSGGTVTVLEKVPVSKGQLKQYFYETKCNPMGYTKEGCRGIDKRHWNSQCRTTQSYVRALTMDSKKRIGWRFIRIDTSCVCTLTIKRGR", "values": [
      {"measurement": "dose response of effects on dendritic arbor complexity", "setting": "[1]; recombinant BDNF 50 ng/mL vs 100-fold dilution, FIG. 4", "value": "significantly less potent following a 100-fold dilution"}
    ]}
  ]
}
